{
  "source": "paper PMC10439028",
  "about": "“SGLT5 is the renal transporter for 1,5-anhydroglucitol, a major player in two rare forms of neutropenia” (Cellular and Molecular Life Sciences: CMLS, 2023)",
  "biological_target": "T1, hSGLT5 Arg401His (Homo sapiens, UniProt A0PJK1, R401H)",
  "T1 construct": "pUB83-hSGLT5-iso2 as well as the various SGLT5 mutants obtained were used to transduce HEK293T cells; expressed in transfected cells; host or cells: HEK293T, lentiviral transduction (pUB83)",
  "T1 sequence (A0PJK1 1-596 R401H)": "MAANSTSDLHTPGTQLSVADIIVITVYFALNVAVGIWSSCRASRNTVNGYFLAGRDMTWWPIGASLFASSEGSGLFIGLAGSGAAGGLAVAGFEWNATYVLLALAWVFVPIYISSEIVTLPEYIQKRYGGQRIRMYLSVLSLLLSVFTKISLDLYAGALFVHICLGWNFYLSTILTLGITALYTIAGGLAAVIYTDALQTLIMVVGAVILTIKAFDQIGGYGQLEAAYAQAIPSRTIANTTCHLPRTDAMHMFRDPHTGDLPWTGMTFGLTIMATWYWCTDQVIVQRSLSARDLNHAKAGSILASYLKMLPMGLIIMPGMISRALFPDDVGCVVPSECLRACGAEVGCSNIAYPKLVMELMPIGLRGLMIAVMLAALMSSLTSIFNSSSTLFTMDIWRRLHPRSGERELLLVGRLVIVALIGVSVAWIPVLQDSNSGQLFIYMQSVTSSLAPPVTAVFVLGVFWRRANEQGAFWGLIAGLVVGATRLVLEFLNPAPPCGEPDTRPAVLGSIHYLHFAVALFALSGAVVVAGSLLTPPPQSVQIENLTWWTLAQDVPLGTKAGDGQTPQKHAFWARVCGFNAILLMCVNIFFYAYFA",
  "assay": "1,5-AG uptake in HEK293T cells overexpressing SGLT5 variant Arg401His",
  "format": "cell-based",
  "description": "For a typical transporter experiment we proceeded as follows. […] To minimize cell loss during the various washing steps in the radioactive uptake experiments, the wells where the cells were seeded were previously coated with poly- D-lysine, which improved their adhesion to the plastic surface of the wells. For this, each well of the 24-well plates was treated with 200 µl of a 0.01% poly-L-lysine solution for 10 min, washed 3 times with 1 ml of sterilized water and left to dry for 2 h. Only then could the 24-well plates be seeded with the appropriate cell lines and cultured overnight at 37 °C in 5% CO2.\nOn day two, the radioactive uptake assay could be performed. The cell culture media was removed by aspiration and cells were incubated for 20 min at 37 °C and 5% CO2 with a basal medium (10 mM HEPES, pH 7.4, 1 mM CaCl2, 1 mM MgCl2, 2 mM KCl) containing 140 mM choline chloride to deplete intracellular Na^2+ ions. […]\nOnce the uptake medium was added to the cells, the plates were incubated at 37 °C in 5% CO2 during the required time. […] In each experiment, the transport activities were calculated after subtracting a “blank” value, corresponding to the radioactivity in the appropriate control cells (HEK293T cells that were stably or transiently transfected with one of the parent plasmids pEF6/MycHisA, pEF6HisB, pUB82 or pUB83 with no inserted cDNA) that were analyzed in parallel. […]",
  "data": [
    {"smiles": "OC[C@H]1OC[C@H](O)[C@@H](O)[C@@H]1O", "note": "[1,5-AG, 1,5-anhydroglucitol]", "values": [
      {"measurement": "Vmax", "value": "11.4 ± 0.2", "unit": "pmol/min/10^5cells"},
      {"measurement": "reduction of transport efficiency compared to SGLT5", "value": "twofold"}
    ]}
  ]
}
